Laboratory results as given in US20220039390A1, “USE OF […] FOR C[…] VEGETATION IN BETA VULGARIS GROWING AREAS” (KWS SAAT SE & Co. KGaA, priority 2018, published 2022).

What was measured:
[1] = acid form, 25° C.; cited from earlier work
[2] = test system: sugar beet (Beta vulgaris); test: Glyphosate selection of mutagenized (EMS/ENU) M2 sugar beet plants, field spray then greenhouse treatment; format: in vivo; conditions: 600 g/ha glyphosate acid equivalent
Description: 6 kg seeds of sugar beet elite line T807 (3BT1760, MO population) were mutagenized with 0.5% EMS and 0.3% and 0.5%, respectively ENU, and subsequently drilled for steck production. Stecks were replanted for seed production occupying an area of 5.8 ha. M1 population sizes were 75,000 seed producing plants for EMS and 19,000 plants for ENU mutagenized seeds. The following M2 seed amounts (values given for purified seed) has been obtained: 240 kg for 0.5% EMS (idents A and B), 548 kg for 0.3% ENU (idents C and D), and 256 kg 0.5% ENU (idents E and F).
176 kg of idents A and B and 75 kg of idents C, D, E and F were sown on an approximately 15 ha spanning field site. Approximately 1 month after sowing, the entire field was sprayed with 0.88 I/ha ROUNDUP® MAX (680 g/kg glyphosate acid equivalent). Approximately 6 weeks later, plants surviving the glyphosate treatment were collected in the field, transplanted to pots and further cultivated in the greenhouses. Surviving plants were treated with 600 g/ha glyphosate acid equivalent about 2 months later. 172 plants survived that treatment in a very healthy stage without any signs of herbicide damage.
In order to identify the causative mutation behind the observed herbicide resistance sequencing analyses have been performed. […]

O=C(O)CNCP(=O)(O)O [glyphosate, N-phosphonomethylglycine]
solubility in water [1]: 1.16 % by weight
resistance conferred by heterozygous P179S mutation in BvEPSPS ([2]; approx. 50% of standard field treatment level, based on screening and selection): complete resistance
plants that survived treatment in a very healthy stage without any signs of herbicide damage ([2]; potted greenhouse plants that had survived the ROUNDUP MAX field spray): 172 plants
